# Laboratory results from ChEMBL document CHEMBL3826970, “Design, synthesis, anti-tumor activity, and molecular modeling of quinazoline and pyrido[2,3-d]pyrimidine derivatives targeting epidermal growth factor receptor” (Eur J Med Chem, 2016).
# Test system: MCF7;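 also: antiproliferative effect quantified with an MTT readout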
# Test: cells
# Assay type: functional, cell-based
# Settings: Homo sapiens, MCF7, 72 h
row,IC50,Compound
1,> 100 µM,Cn1cc(-c2cnc3ncnc(NCc4cccc([N+](=O)[O-])c4)c3c2)cn1
2,22.6 µM,CC(Oc1ncnc2ccc(-c3cnn(C)c3)cc12)c1c(Cl)ccc(F)c1Cl (centres undefined)
3,> 100 µM,CC(Nc1ncnc2ncc(-c3cnn(C)c3)cc12)c1c(Cl)ccc(F)c1Cl (centres undefined)
4,1.24 µM,CC(Oc1nc(N)nc2ccc(-c3cnn(C4CCNCC4)c3)cc12)c1c(Cl)ccc(F)c1Cl (centres undefined)
5,22 µM,Cn1cc(-c2ccc3ncnc(Oc4ccc5ncccc5c4)c3c2)cn1
6,2.23 µM,CC(Nc1nc(N)nc2ccc(-c3cnn(C4CCNCC4)c3)cc12)c1c(Cl)ccc(F)c1Cl (centres undefined)
7,2.87 µM,CC(Nc1nc(N)nc2ccc(-c3cnn(C)c3)cc12)c1c(Cl)ccc(F)c1Cl (centres undefined)

row,Compound,IC50
1,c1cnc2ccc(Nc3ncnc4ccc(-c5cnn(C6CCNCC6)c5)cc34)cc2c1,61.9 µM
2,Cn1cc(-c2ccc3ncnc(Nc4ccc(F)c(Cl)c4)c3c2)cn1,52.2 µM

# Test system: A549;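 also: antiproliferative effect read out by MTT assay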
# Test: cells
# Assay type: functional, cell-based
# Settings: Homo sapiens, A549, 72 h
# Description: Antiproliferative activity against human A549 cells after 72 hrs by MTT assay
row,IC50,Compound
1,> 100 µM,Cn1cc(-c2cnc3ncnc(NCc4cccc([N+](=O)[O-])c4)c3c2)cn1
2,28.8 µM,CC(Oc1ncnc2ccc(-c3cnn(C)c3)cc12)c1c(Cl)ccc(F)c1Cl (centres undefined)
3,> 100 µM,CC(Nc1ncnc2ncc(-c3cnn(C)c3)cc12)c1c(Cl)ccc(F)c1Cl (centres undefined)
4,9.49 µM,CC(Oc1nc(N)nc2ccc(-c3cnn(C4CCNCC4)c3)cc12)c1c(Cl)ccc(F)c1Cl (centres undefined)
5,26.6 µM,Cn1cc(-c2ccc3ncnc(Oc4ccc5ncccc5c4)c3c2)cn1
6,8.8 µM,CC(Nc1nc(N)nc2ccc(-c3cnn(C4CCNCC4)c3)cc12)c1c(Cl)ccc(F)c1Cl (centres undefined)
7,> 100 µM,CC(Nc1nc(N)nc2ccc(-c3cnn(C)c3)cc12)c1c(Cl)ccc(F)c1Cl (centres undefined)

row,Compound,IC50
1,c1cnc2ccc(Nc3ncnc4ccc(-c5cnn(C6CCNCC6)c5)cc34)cc2c1,32 µM
2,Cn1cc(-c2ccc3ncnc(Nc4ccc(F)c(Cl)c4)c3c2)cn1,> 100 µM

# Test system: not listed separately
# Test: Antiproliferative activity against human BT474 cells after 72 hrs by MTT assay
# Assay type: functional, cell-based
# Settings: BT-474, 72 h
row,Compound,IC50
1,Cn1cc(-c2cnc3ncnc(NCc4cccc([N+](=O)[O-])c4)c3c2)cn1,> 100 µM
2,CC(Oc1ncnc2ccc(-c3cnn(C)c3)cc12)c1c(Cl)ccc(F)c1Cl (centres undefined),45.6 µM
3,CC(Nc1ncnc2ncc(-c3cnn(C)c3)cc12)c1c(Cl)ccc(F)c1Cl (centres undefined),> 100 µM
4,c1cnc2ccc(Nc3ncnc4ccc(-c5cnn(C6CCNCC6)c5)cc34)cc2c1,12.8 µM
5,CC(Oc1nc(N)nc2ccc(-c3cnn(C4CCNCC4)c3)cc12)c1c(Cl)ccc(F)c1Cl (centres undefined),3 µM
6,Cn1cc(-c2ccc3ncnc(Nc4ccc(F)c(Cl)c4)c3c2)cn1,5.26 µM
7,Cn1cc(-c2ccc3ncnc(Oc4ccc5ncccc5c4)c3c2)cn1,24.3 µM
8,CC(Nc1nc(N)nc2ccc(-c3cnn(C4CCNCC4)c3)cc12)c1c(Cl)ccc(F)c1Cl (centres undefined),5.1 µM
9,CC(Nc1nc(N)nc2ccc(-c3cnn(C)c3)cc12)c1c(Cl)ccc(F)c1Cl (centres undefined),7.12 µM

# Test system: SK-BR-3;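 also: antiproliferative effect determined with an MTT read-out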
# Test: cells
# Assay type: functional, cell-based
# Settings: Homo sapiens, SK-BR-3, 72 h
# Description: Antiproliferative activity against human SK-BR-3 cells after 72 hrs by MTT assay
row,IC50,Compound
1,> 100 µM,Cn1cc(-c2cnc3ncnc(NCc4cccc([N+](=O)[O-])c4)c3c2)cn1
2,27.2 µM,CC(Oc1ncnc2ccc(-c3cnn(C)c3)cc12)c1c(Cl)ccc(F)c1Cl (centres undefined)
3,> 100 µM,CC(Nc1ncnc2ncc(-c3cnn(C)c3)cc12)c1c(Cl)ccc(F)c1Cl (centres undefined)
4,7.12 µM,CC(Oc1nc(N)nc2ccc(-c3cnn(C4CCNCC4)c3)cc12)c1c(Cl)ccc(F)c1Cl (centres undefined)
5,14.4 µM,Cn1cc(-c2ccc3ncnc(Oc4ccc5ncccc5c4)c3c2)cn1
6,1.58 µM,CC(Nc1nc(N)nc2ccc(-c3cnn(C4CCNCC4)c3)cc12)c1c(Cl)ccc(F)c1Cl (centres undefined)
7,7.14 µM,CC(Nc1nc(N)nc2ccc(-c3cnn(C)c3)cc12)c1c(Cl)ccc(F)c1Cl (centres undefined)

row,Compound,IC50
1,c1cnc2ccc(Nc3ncnc4ccc(-c5cnn(C6CCNCC6)c5)cc34)cc2c1,2.66 µM
2,Cn1cc(-c2ccc3ncnc(Nc4ccc(F)c(Cl)c4)c3c2)cn1,3.1 µM

# Test system: MDA-MB-231;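 also: antiproliferative effect read out with the MTT assay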
# Test: cells
# Assay type: functional, cell-based
# Settings: Homo sapiens, MDA-MB-231, 72 h
row,IC50,Compound
1,> 100 µM,Cn1cc(-c2cnc3ncnc(NCc4cccc([N+](=O)[O-])c4)c3c2)cn1
2,30 µM,CC(Oc1ncnc2ccc(-c3cnn(C)c3)cc12)c1c(Cl)ccc(F)c1Cl (centres undefined)
3,> 100 µM,CC(Nc1ncnc2ncc(-c3cnn(C)c3)cc12)c1c(Cl)ccc(F)c1Cl (centres undefined)
4,7 µM,CC(Oc1nc(N)nc2ccc(-c3cnn(C4CCNCC4)c3)cc12)c1c(Cl)ccc(F)c1Cl (centres undefined)
5,16.5 µM,Cn1cc(-c2ccc3ncnc(Oc4ccc5ncccc5c4)c3c2)cn1
6,4.48 µM,CC(Nc1nc(N)nc2ccc(-c3cnn(C4CCNCC4)c3)cc12)c1c(Cl)ccc(F)c1Cl (centres undefined)
7,7.96 µM,CC(Nc1nc(N)nc2ccc(-c3cnn(C)c3)cc12)c1c(Cl)ccc(F)c1Cl (centres undefined)

row,Compound,IC50
1,c1cnc2ccc(Nc3ncnc4ccc(-c5cnn(C6CCNCC6)c5)cc34)cc2c1,30.3 µM
2,Cn1cc(-c2ccc3ncnc(Nc4ccc(F)c(Cl)c4)c3c2)cn1,62.6 µM

# Target: T1, Epidermal growth factor receptor (Homo sapiens, UniProt P00533)
# Test: not given
# Settings: not given
# T1 sequence (P00533 whole entry): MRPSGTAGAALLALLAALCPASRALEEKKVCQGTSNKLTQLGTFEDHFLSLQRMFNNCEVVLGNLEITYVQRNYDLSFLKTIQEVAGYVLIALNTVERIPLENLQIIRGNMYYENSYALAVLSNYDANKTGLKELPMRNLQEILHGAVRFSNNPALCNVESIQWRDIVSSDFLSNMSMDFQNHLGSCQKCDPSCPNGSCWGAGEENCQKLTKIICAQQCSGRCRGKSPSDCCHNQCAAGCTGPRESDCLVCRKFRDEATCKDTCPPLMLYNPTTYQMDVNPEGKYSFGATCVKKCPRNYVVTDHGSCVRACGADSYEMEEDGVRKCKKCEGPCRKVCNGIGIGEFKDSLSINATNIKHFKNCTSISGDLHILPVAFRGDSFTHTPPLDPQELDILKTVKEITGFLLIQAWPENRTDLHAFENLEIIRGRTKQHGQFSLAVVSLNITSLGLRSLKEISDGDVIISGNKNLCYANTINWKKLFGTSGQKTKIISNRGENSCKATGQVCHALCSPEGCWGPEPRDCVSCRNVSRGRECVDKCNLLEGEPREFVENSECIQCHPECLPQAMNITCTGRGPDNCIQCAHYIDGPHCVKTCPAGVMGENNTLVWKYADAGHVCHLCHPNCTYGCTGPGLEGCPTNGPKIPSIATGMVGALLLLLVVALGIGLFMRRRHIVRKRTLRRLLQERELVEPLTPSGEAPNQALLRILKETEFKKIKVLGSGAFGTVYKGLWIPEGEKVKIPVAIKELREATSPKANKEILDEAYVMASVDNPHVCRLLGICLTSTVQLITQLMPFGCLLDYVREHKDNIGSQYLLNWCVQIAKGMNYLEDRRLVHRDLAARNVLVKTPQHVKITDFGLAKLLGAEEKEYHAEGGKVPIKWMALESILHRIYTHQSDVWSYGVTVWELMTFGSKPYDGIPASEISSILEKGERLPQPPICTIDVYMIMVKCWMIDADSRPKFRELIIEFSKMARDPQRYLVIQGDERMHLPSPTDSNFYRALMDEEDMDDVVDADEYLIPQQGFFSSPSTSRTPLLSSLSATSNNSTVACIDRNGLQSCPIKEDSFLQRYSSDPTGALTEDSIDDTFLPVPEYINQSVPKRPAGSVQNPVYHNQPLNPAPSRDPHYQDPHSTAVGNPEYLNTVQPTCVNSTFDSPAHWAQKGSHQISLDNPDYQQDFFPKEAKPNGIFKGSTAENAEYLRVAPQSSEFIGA
row,Compound,IC50
1,c1cnc2ccc(Nc3ncnc4ccc(-c5cnn(C6CCNCC6)c5)cc34)cc2c1,28.2 nM
2,Cn1cc(-c2ccc3ncnc(Nc4ccc(F)c(Cl)c4)c3c2)cn1,2.97 nM

# Target: Epidermal growth factor receptor (Homo sapiens, UniProt P00533, L858R)
# Test: not given
# Settings: not given
# Chain of Epidermal growth factor receptor (Homo sapiens, UniProt P00533, L858R) (P00533 25-1210 L858R limits assumed): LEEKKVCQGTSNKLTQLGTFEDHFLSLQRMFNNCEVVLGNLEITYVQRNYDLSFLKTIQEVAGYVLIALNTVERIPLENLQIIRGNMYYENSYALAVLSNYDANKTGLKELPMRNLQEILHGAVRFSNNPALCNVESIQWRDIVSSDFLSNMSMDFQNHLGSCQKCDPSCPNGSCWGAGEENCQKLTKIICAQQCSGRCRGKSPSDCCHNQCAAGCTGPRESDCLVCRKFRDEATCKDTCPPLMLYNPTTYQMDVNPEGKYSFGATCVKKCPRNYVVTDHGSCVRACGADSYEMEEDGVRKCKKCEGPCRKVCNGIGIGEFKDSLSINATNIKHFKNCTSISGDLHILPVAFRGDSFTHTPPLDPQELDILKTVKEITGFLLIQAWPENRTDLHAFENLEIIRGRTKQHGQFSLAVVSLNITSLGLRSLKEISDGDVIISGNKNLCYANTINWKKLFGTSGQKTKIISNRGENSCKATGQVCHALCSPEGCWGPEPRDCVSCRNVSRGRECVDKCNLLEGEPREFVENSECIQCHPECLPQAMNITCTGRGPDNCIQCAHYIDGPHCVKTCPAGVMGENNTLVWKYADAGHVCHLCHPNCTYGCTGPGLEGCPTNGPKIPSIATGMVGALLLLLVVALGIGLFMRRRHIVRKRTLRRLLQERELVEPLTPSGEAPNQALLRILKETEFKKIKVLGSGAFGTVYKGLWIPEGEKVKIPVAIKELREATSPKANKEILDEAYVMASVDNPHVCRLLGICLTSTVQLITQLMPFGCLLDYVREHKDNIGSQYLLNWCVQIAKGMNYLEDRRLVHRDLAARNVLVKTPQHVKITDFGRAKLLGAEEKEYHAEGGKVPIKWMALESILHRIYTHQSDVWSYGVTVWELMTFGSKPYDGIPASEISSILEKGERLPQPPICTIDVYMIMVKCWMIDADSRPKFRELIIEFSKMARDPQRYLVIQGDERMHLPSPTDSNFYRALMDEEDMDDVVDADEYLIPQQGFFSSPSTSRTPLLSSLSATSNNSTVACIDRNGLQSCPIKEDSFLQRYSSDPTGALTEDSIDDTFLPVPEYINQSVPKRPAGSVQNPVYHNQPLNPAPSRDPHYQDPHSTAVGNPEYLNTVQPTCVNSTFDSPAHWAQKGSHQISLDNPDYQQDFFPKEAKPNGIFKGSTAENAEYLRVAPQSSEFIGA
row,Compound,IC50
1,c1cnc2ccc(Nc3ncnc4ccc(-c5cnn(C6CCNCC6)c5)cc34)cc2c1,35 nM
2,Cn1cc(-c2ccc3ncnc(Nc4ccc(F)c(Cl)c4)c3c2)cn1,3.5 nM

# Target: Epidermal growth factor receptor (Homo sapiens, UniProt P00533, L858R/T790M)
# Test: Inhibition of cytoplasmic GST-tagged human recombinant EGFR L858R/T790M double mutant (668-1210 residues) expressed in baculovirus system by z-lyte assay
# Settings: not given
# Chain of Epidermal growth factor receptor (Homo sapiens, UniProt P00533, L858R/T790M) (P00533 25-1210 T790M/L858R limits assumed): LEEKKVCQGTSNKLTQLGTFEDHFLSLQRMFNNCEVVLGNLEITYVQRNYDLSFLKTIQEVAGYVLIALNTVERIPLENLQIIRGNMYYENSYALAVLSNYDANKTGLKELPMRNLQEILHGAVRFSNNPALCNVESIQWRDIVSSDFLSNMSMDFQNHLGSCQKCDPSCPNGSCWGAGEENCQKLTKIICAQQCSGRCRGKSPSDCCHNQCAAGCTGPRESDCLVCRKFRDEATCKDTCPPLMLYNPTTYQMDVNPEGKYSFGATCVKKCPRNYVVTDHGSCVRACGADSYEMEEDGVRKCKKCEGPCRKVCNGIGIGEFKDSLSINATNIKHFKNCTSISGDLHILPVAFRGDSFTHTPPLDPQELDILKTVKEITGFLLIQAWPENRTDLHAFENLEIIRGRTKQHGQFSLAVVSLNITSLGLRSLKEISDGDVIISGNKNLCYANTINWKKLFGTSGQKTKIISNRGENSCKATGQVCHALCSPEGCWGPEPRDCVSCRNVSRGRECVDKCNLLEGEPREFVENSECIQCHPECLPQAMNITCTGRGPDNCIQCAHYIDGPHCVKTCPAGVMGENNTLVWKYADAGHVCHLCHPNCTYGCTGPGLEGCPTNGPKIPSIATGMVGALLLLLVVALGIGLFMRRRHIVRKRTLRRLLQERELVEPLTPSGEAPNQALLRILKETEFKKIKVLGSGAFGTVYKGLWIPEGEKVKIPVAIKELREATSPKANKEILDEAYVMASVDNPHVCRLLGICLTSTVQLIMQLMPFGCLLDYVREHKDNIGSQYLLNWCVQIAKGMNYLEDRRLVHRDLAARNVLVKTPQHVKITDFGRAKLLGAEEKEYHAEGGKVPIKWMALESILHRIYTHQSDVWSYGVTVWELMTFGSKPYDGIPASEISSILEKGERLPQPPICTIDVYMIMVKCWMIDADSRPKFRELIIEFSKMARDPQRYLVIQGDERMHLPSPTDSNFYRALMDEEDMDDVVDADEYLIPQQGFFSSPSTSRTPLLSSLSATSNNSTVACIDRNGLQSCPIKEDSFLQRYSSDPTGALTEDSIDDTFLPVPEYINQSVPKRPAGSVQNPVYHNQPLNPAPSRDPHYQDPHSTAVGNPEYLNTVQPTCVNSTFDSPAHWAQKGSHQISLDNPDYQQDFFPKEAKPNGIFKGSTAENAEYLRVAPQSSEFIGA
row,Compound,IC50
1,c1cnc2ccc(Nc3ncnc4ccc(-c5cnn(C6CCNCC6)c5)cc34)cc2c1,> 1000 nM
2,Cn1cc(-c2ccc3ncnc(Nc4ccc(F)c(Cl)c4)c3c2)cn1,> 1000 nM

# Target: Receptor tyrosine-protein kinase erbB-2 (Homo sapiens, UniProt P04626)
# Test: Inhibition of cytoplasmic His-tagged human ErbB2 expressed in baculovirus system by z-lyte assay
# Settings: not given
# Chain of Receptor tyrosine-protein kinase erbB-2 (P04626 whole entry): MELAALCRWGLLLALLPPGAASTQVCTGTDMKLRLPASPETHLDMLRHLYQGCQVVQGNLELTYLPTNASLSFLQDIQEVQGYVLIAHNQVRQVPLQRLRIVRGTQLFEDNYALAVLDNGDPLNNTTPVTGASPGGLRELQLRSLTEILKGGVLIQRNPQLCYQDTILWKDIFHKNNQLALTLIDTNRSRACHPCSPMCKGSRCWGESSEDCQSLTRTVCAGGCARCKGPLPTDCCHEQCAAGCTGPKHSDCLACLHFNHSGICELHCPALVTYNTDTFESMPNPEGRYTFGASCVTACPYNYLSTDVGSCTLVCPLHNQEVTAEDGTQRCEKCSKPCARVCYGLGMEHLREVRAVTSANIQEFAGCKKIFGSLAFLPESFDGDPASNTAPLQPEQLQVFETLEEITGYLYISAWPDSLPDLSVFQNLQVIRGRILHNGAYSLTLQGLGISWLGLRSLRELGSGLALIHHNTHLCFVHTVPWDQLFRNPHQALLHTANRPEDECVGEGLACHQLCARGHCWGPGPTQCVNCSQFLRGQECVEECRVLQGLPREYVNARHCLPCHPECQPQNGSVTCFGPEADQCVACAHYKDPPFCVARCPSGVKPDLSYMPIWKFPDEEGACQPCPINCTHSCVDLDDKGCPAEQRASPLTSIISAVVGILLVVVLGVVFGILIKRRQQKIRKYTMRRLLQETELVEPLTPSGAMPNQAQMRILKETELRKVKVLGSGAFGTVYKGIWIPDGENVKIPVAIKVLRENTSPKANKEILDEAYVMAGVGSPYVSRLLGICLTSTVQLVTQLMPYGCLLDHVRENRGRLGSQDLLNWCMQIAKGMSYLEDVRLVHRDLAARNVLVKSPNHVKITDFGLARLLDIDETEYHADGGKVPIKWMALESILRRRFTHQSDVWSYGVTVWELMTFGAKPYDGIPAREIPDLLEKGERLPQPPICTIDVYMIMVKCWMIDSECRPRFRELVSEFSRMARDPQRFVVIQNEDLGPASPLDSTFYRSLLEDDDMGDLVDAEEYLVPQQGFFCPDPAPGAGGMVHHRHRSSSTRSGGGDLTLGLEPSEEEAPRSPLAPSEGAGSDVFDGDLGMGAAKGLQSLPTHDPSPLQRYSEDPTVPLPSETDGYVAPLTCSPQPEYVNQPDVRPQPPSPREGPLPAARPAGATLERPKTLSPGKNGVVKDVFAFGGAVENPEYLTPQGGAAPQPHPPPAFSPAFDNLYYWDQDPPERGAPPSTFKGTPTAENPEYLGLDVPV
row,Compound,IC50
1,c1cnc2ccc(Nc3ncnc4ccc(-c5cnn(C6CCNCC6)c5)cc34)cc2c1,1350 nM
2,Cn1cc(-c2ccc3ncnc(Nc4ccc(F)c(Cl)c4)c3c2)cn1,676 nM

# Target: Receptor tyrosine-protein kinase erbB-4 (Homo sapiens, UniProt Q15303)
# Test: Inhibition of cytoplasmic GST-tagged human ErbB4 expressed in baculovirus system by z-lyte assay
# Settings: not given
row,Compound,IC50
1,c1cnc2ccc(Nc3ncnc4ccc(-c5cnn(C6CCNCC6)c5)cc34)cc2c1,1100 nM
2,Cn1cc(-c2ccc3ncnc(Nc4ccc(F)c(Cl)c4)c3c2)cn1,801 nM

# Target: T1, Epidermal growth factor receptor
# Test: not given
# Settings: at 1 µM
row,inhibition,Compound
1,30%,Cn1cc(-c2cnc3ncnc(NCc4cccc([N+](=O)[O-])c4)c3c2)cn1
2,11%,CC(Oc1ncnc2ccc(-c3cnn(C)c3)cc12)c1c(Cl)ccc(F)c1Cl (centres undefined)
3,9%,CC(Nc1ncnc2ncc(-c3cnn(C)c3)cc12)c1c(Cl)ccc(F)c1Cl (centres undefined)
4,7%,CC(Oc1nc(N)nc2ccc(-c3cnn(C4CCNCC4)c3)cc12)c1c(Cl)ccc(F)c1Cl (centres undefined)
5,43%,Cn1cc(-c2ccc3ncnc(Oc4ccc5ncccc5c4)c3c2)cn1
6,17%,CC(Nc1nc(N)nc2ccc(-c3cnn(C4CCNCC4)c3)cc12)c1c(Cl)ccc(F)c1Cl (centres undefined)
7,12%,CC(Nc1nc(N)nc2ccc(-c3cnn(C)c3)cc12)c1c(Cl)ccc(F)c1Cl (centres undefined)

row,Compound,inhibition
1,c1cnc2ccc(Nc3ncnc4ccc(-c5cnn(C6CCNCC6)c5)cc34)cc2c1,96%
2,Cn1cc(-c2ccc3ncnc(Nc4ccc(F)c(Cl)c4)c3c2)cn1,101%
